The values below are quoted from earlier work in US11910793B2, “Multifunctional agricultural adjuvant compositions” (WINFIELD SOLUTIONS, LLC, priority 2019, dated 2024).

For the data set the following is noted: water at 0° C.

Regarding `N.N.O=S(=O)(O)O` [AMS, ammonium sulfate], the “amount of AMS dissolvable in water” value is 41 wt. %.
